Measured values published in patent publication US10421765B2, “Tetrahydropyrido[4,3-d]pyrimidine inhibitors of ATR kinase” (Board of Regents, The University of Texas System, priority 2017, dated 2019).
Like-named read-outs stand apart in the source and are kept apart here.

How the values were obtained:
[1] = system: ATR-driven phosphorylation of Chk1 kinase at Serine 345 in HT-29 colorectal adenocarcinoma cells; experiment: pCHK1 cellular assay (CHK1 p-Ser345 AlphaScreen SureFire); format: cell-based; conditions: 4-nitroquinoline N-oxide 12 uM, read-out: Cell IC50 (pCHK1 IC50 values)
Protocol: Inhibitors of ATR kinase are effective at inhibiting the ATR-driven phosphorylation of the downstream target Chk1 kinase at Serine 345, following the addition of 4-nitroquinoline N-oxide, a chemical used to induce DNA damage. Cellular IC50 for the inhibitors of ATR described herein were measured in HT-29 colorectal adenocarcinoma cells. HT-29 cells were routinely maintained in McCoy's 5A media (ATCC Catalog #30-2007) supplemented with 10% fetal bovine serum (Sigma Catalog #F2442) and 1× Penicillin-Streptomycin (Gibco Catalog #15140-122) using a humidified incubator (37° C., 5% CO2, and ambient O2).
In preparation for the CHK1 (p-Ser345) ALPHASCREEN® SUREFIRE® assay, cells were harvested and resuspended in McCoy's 5A media supplemented with 10% fetal bovine serum and 1× Penicillin-Streptomycin. Cells were seeded onto a 384-well black CELLSTAR® Tissue Culture Plate (VWR Catalog #89085-314) at a density of 13,000 cells/well in a volume of 40 uL. The microplate was incubated overnight (approximately 20 hours) at 37° C. with 5% CO2 and ambient O2. Stock solutions of the test compounds were prepared in 100% DMSO (Sigma, Catalog #D2650) and serially diluted 1:3 using 100% DMSO. Compounds were additionally diluted 1:33 in culture medium, and 10 ul/well were transferred to the tissue culture plate. Following the compound addition the microplate was incubated at 37° C. for 90 minutes. 10 uL of 4-nitroquinoline N-oxide (Sigma Aldrich Catalog #N8141-1G) diluted in media (final concentration 12 uM) were added to the tissue culture plate followed by a 120 minute incubation at 37° C. The cells were then washed with PBS and lysed using 10 uL/well SUREFIRE® Kit lysis buffer diluted to 1× in water (PerkinElmer Catalog #TGRCHK1S50K), with mixing on an orbital shaker at 500 rpm for 20 min at RT. Lysates were frozen at −20° C. overnight.
4 uL/well of lysate was then transferred from the tissue culture plate to a 384-well, white, low volume, PROXIPLATE™ (PerkinElmer Catalog #600828). 5 uL/well of the acceptor bead solution, prepared by diluting SUREFIRE® Kit activation buffer (PerkinElmer Catalog #TGRCHK1S50K) and ALPHASCREEN® Protein A acceptor beads (PerkinElmer Catalog #6760617R) in SUREFIRE® Kit reaction buffer (PerkinElmer Catalog #TGRCHK1S50K), were added to the lysates under subdued light and incubated at room temperature for 120 min. 2 uL/well of the donor bead solution, prepared by diluting ALPHASCREEN® Streptavidin donor beads (PerkinElmer Catalog #6760617R) in SUREFIRE® Kit dilution buffer (PerkinElmer Catalog #TGRCHK1S50K), were added under subdued light and incubated at room temperature for an addition 120 minutes. The pCHK1 ALPHASCREEN® signal was measured using an ENVISION® plate reader (PerkinElmer). IC50 values were calculated using a four-parameter logistic curve fit using Genedata Screener software. Percent of control for each compound concentration was calculated by the following formula: 100*(Compound−Min)/(Max−Min) where “Max” is the high control, DMSO, and “Min” is the low control, 5 uM ATR inhibitor.

ATR/ATRIP complex = ATR/ATRIP complex (Homo sapiens (Human), UniProt Q13535); experiment: ATR/ATRIP enzymatic assay (Caliper-based); format: biochemical; conditions: FAM-labeled RAD17 peptide, ATP
Protocol: Human full-length FLAG-TEV-ATR and His6-ATRIP were co-expressed in HEK293 cells. The cell pellet (20 g) was harvested and lysed in 100 mL of lysis buffer (20 mM Tris-HCl pH 7.5 at room temperature, 137 mM NaCl, 10% glycerol, 1 mM DTT, 1% (v/v) Tween-20, 0.1% (v/v) NP-40, complete protease inhibitor cocktail tablets, phosphatase inhibitor cocktail tablets, 2 mM MgCl2, 0.2 mM EDTA, and 1 mM ATP). After sonication and centrifugation, the supernatant was incubated at 4° C. for 3 hours with 1 mL of anti-FLAG resin (Sigma catalog #A2220) that had been pre-equilibrated in buffer A (20 mM Tris-HCl pH 7.5 at room temperature, 137 mM NaCl, 10% glycerol, 1 mM DTT, 2 mM MgCl2, and 0.2 mM EDTA). The sample was loaded into a column, and then washed with buffer A three times. Protein was subsequently eluted with 2 ml of buffer B (buffer A+200 μg/ml 3×FLAG peptide).
The ability of new chemical matter to inhibit the ATR catalytic activity in this ATR/ATRIP complex was assessed using a Caliper-based assay. A 2x enzyme solution (i.e., 4 nM enzyme) was prepared using 1× Kinase Reaction Buffer (25 mM HEPES pH 8, 0.0055% Brij-35, 10 mM MnCl2, and 1 mM DTT). A 2x peptide solution was then prepared consisting of 10 uM FAM-labeled RAD17 peptide (GL Biochem, catalog #524315) in 1× Kinase Reaction Buffer supplemented with 2 μM ATP. 10 μL of the 2× enzyme solution was transferred to an assay plate containing 60 nL of test compound (from a 3× serial dilution) in 100% DMSO. Following a 30 minute incubation at 28° C., 10 μL of the 2× peptide solution was then transferred to the same assay plate. The reaction was allowed to incubate at 28° C. for 6 hours. After adding […] of stop buffer (100 mM HEPES pH 7.5, 0.015% Brij-35, 0.2% Coating-3 Reagent (PerkinElmer, catalog #PN760050), and 50 mM EDTA), data were collected on a Caliper instrument. Conversion values were converted to inhibition values via the following equation: % inhibition=(max−conversion)/(max−min)*100, whereby “max” corresponds to the DMSO control and “min” corresponds to the low control. IC50 values were calculated using the following equation in XLFit: Y=Bottom+(Top−Bottom)/1+(IC50/X)^HillSlope).

[2] = Homo sapiens, HT-29, HT-29 cells
[3] = read-out: ATR/ATRIP Enzyme IC50
[4] = estimated range, read-out: ATR/ATRIP Enzyme IC50 (estimated class)

Sequence of ATR/ATRIP complex (Q13535 whole entry): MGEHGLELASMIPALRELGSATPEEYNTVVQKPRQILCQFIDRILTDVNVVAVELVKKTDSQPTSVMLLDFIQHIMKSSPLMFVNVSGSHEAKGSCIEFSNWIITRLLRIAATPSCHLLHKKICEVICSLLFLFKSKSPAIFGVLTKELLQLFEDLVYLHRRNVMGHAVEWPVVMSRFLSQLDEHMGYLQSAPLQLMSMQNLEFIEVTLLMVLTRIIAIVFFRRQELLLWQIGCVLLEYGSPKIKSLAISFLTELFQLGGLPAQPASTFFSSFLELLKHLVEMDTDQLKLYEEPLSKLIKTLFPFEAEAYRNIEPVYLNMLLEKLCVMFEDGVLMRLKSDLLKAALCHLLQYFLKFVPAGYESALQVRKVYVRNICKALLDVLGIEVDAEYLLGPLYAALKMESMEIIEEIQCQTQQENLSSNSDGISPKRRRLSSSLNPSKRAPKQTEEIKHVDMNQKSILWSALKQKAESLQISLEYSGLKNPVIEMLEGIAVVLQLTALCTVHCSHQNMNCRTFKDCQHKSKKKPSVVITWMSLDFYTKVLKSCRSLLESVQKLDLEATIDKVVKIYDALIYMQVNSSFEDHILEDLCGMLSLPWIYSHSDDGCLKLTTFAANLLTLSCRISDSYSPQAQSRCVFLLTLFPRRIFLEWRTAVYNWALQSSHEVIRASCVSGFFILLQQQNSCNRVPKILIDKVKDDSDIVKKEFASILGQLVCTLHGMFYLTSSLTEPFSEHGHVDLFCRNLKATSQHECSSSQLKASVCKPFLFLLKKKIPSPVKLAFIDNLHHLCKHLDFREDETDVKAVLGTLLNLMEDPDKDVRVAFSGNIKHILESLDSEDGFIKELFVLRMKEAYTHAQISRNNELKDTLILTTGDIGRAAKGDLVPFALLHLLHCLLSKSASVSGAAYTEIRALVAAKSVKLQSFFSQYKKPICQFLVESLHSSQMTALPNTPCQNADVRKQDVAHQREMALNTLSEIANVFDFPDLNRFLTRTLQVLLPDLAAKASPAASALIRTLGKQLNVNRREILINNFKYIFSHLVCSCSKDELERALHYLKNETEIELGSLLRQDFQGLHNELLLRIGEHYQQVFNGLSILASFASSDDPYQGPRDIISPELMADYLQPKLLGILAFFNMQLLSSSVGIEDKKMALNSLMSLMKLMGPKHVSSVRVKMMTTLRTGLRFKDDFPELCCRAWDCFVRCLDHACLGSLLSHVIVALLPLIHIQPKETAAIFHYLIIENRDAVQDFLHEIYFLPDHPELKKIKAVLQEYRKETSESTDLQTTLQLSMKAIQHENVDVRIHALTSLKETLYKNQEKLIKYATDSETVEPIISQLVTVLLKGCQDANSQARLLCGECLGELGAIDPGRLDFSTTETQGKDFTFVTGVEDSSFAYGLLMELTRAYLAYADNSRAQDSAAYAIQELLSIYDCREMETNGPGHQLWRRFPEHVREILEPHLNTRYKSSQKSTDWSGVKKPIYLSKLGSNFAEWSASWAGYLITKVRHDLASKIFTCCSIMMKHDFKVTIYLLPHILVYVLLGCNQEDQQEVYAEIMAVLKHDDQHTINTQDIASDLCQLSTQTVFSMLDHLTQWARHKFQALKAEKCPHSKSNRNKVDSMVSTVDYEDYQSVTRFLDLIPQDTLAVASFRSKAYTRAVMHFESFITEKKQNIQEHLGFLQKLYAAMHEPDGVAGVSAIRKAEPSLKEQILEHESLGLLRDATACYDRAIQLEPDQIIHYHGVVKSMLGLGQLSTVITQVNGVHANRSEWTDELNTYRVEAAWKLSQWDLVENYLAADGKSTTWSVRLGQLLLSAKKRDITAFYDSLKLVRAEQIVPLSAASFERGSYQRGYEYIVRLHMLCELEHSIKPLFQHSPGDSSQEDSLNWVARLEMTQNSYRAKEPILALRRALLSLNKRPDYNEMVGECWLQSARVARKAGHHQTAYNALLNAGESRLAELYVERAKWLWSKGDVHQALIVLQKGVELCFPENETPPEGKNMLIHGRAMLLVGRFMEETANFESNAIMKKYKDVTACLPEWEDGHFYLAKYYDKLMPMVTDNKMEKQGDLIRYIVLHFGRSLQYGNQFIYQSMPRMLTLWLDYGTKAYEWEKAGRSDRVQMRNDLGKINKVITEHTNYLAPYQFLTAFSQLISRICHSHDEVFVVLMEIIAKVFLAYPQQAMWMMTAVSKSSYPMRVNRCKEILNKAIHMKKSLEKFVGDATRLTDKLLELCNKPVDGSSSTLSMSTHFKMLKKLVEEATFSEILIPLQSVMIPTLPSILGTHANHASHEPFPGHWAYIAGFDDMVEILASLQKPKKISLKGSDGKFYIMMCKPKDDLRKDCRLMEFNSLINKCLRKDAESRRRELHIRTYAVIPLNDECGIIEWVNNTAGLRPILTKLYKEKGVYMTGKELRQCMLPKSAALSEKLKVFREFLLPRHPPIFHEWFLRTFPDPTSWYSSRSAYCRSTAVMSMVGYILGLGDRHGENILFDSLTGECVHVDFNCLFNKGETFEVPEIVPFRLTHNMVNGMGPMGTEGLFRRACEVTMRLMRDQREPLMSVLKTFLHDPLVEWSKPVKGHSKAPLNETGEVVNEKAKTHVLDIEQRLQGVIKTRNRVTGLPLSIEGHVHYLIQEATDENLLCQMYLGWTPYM
Sequence of ATR/ATRIP complex (Q8WXE1 whole entry partner): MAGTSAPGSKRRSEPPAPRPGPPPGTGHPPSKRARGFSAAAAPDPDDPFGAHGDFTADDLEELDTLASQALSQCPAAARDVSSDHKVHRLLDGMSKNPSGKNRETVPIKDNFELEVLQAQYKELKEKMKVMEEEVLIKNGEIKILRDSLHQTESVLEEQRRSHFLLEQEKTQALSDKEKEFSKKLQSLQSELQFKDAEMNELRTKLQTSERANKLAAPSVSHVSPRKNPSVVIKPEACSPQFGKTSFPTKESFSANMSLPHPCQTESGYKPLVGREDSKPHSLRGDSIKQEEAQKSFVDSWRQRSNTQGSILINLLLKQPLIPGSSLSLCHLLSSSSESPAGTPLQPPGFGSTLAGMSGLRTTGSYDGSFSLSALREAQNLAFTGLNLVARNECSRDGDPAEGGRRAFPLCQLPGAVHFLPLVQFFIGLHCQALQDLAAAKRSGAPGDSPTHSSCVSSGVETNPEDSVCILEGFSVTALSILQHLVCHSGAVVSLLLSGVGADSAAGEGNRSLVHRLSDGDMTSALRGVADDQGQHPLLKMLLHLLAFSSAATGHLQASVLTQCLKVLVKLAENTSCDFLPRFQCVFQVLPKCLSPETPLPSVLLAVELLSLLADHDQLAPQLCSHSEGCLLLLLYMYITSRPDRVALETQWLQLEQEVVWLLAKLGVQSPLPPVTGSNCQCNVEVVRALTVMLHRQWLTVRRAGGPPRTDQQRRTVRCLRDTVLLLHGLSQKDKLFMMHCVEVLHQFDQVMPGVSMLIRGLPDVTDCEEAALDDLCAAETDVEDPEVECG

IC50 [1, 2] [nM] | IC50 (ATR/ATRIP complex; [3]) [nM] | IC50 (ATR/ATRIP complex; [4]) [nM] | Structure (SMILES) | IC50 ([1]; HT-29 cells) [nM]
38 | 246 |  | C[C@@H]1Cc2ncnc(N3CC(C#N)C3)c2CN1c1ccnc2[nH]ccc12 [Example 81, (R)-1-(7-methyl-6-(1H-pyrrolo[2,3-b]pyridin-4-yl)-5,6,7,8-tetrahydro-pyrido[4,3-d]pyrimidin-4-yl)azetidine-3-carbonitrile] | 
183 | 1970 |  | CC1Cc2ncnc(-c3ccc(S(C)(=O)=O)cc3)c2CN1c1ccnc2[nH]ccc12 (centres unmarked) [Example 3, 7-Methyl-4-(4-(methylsulfonyl)phenyl)-6-(1H-pyrrolo[2,3-b]pyridin-4-yl)-5,6,7,8-tetrahydropyrido[4,3-d]pyrimidine bis(trifluoroacetate)] | 
88 |  | 1000 to 10000 | C[C@@H]1Cc2ncnc(N3C[C@H]4CC[C@@H](C3)C4NC(=O)CC(F)(F)F)c2CN1c1cc(Cl)nc2[nH]ccc12 (stereo partly drawn) [Example 26, N-{3-[(7R)-6-{6-chloro-1H-pyrrolo[2,3-b]pyridin-4-yl}-7-methyl-5H,6H,7H,8H-pyrido[4,3-d]pyrimidin-4-yl]-3-aza-bicyclo[3.2.1]octan-8-yl}-3,3-trifluoro-propanamide] | 
133 | 420 |  | C[C@@H]1Cc2ncnc(N3CCCC(S(C)(=O)=O)C3)c2CN1c1ccnc2[nH]ccc12 (stereo partly drawn) [Example 18, 3-methanesulfonyl-1-[(7R)-7-methyl-6-{1H-pyrrolo[2,3-b]pyridin-4-yl}-5H,6H,7H,8H-pyrido[4,3-d]pyrimidin-4-yl]piperidine] | 
18 | 269 |  | COc1cc(N2Cc3c(ncnc3C3CCN(S(C)(=O)=O)CC3)C[C@H]2C)c2cc[nH]c2n1 [Example 91, (R)-6-(6-methoxy-1H-pyrrolo[2,3-b]pyridin-4-yl)-7-methyl-4-(1-(methylsulfonyl)-piperidin-4-yl)-5,6,7,8-tetrahydropyrido[4,3-d]-pyrimidine] | 
152 |  | 1000 to 10000 | CC1Cc2ncnc(-c3cccc(S(C)(=O)=O)c3)c2CN1c1ccnc2[nH]ccc12 (centres unmarked) [Example 15, 4-(3-methanesulfonyl-phenyl)-7-methyl-6-{1H-pyrrolo[2,3-b]pyridin-4-yl}-5H,6H,7H,8H-pyrido[4,3-d]pyrimidine] | 
7390 | 138 |  | C[C@@H]1Cc2ncnc(C3CCN(S(C)(=O)=O)CC3)c2CN1c1cnc2cn[nH]c2c1 [Example 89, (R)-7-methyl-4-(1-(methylsulfonyl)piperidin-4-yl)-6-(1H-pyrazolo-[4,3-b]pyridin-6-yl)-5,6,7,8-tetrahydro-pyrido[4,3-d]pyrimidine] | 
30 | 311 |  | CCOc1cc(N2Cc3c(ncnc3C3CCN(S(C)(=O)=O)CC3)C[C@H]2CF)c2cc[nH]c2n1 [Example 55b, (S)-6-(6-ethoxy-1H-pyrrolo[2,3-b]pyridin-4-yl)-7-(fluoromethyl)-4-(1-(methylsulfonyl)piperidin-4-yl)-5,6,7,8-tetrahydropyrido[4,3-d]pyrimidine] | 
2360 | 25000 |  | CCOc1cc(N2Cc3c(ncnc3C3CCN(S(C)(=O)=O)CC3)C[C@@H]2CF)c2cc[nH]c2n1 [Example 55a, (R)-6-(6-ethoxy-1H-pyrrolo[2,3-b]pyridin-4-yl)-7-(fluoromethyl)-4-(1-(methylsulfonyl)piperidin-4-yl)-5,6,7,8-tetrahydropyrido[4,3-d]pyrimidine] | 
50 | 184 |  | C[C@@H]1Cc2ncnc(N3C[C@H]4CC[C@@H](C3)[C@H]4NS(=O)(=O)C3CC3)c2CN1c1cc(Cl)nc2[nH]ccc12 [Example 78, N-((1R,5S,8R)-3-((R)-6-(6-chloro-1H-pyrrolo[2,3-b]pyridin-4-yl)-7-methyl-5,6,7,8-tetrahydropyrido-[4,3-d]pyrimidin-4-yl)-3-azabicyclo[3.2.1]-octan-8-yl)cyclopropane-sulfonamide] | 
51 | 329 |  | C[C@@H]1Cc2ncnc(N3CC[C@H](S(C)(=O)=O)C3)c2CN1c1cc(Cl)nc2[nH]ccc12 [Example 86, (R)-6-(6-chloro-1H-pyrrolo[2,3-b]pyridin-4-yl)-7-methyl-4-((S)-3-(methylsulfonyl)-pyrrolidin-1-yl)-5,6,7,8-tetrahydropyrido[4,3-d]-pyrimidine] | 
92 | 1040 |  | CNC(=O)[C@@H]1CCCN(c2ncnc3c2CN(c2cc(Cl)nc4[nH]ccc24)[C@H](C)C3)C1 [Example 44, (R)-1-((R)-6-(6-Chloro-1H-pyrrolo[2,3-b]pyridin-4-yl)-7-methyl-5,6,7,8-tetrahydropyrido[4,3-d]pyrimidin-4-yl)-N-methylpiperidine-3-carboxamide] | 
61 | 708 |  | CNC(=O)C1CCN(c2ncnc3c2CN(c2cc(Cl)nc4[nH]ccc24)[C@H](C)C3)CC1 [Example 76, (R)-1-(6-(6-chloro-1H-pyrrolo[2,3-b]pyridin-4-yl)-7-methyl-5,6,7,8-tetrahydropyrido[4,3-d]-pyrimidin-4-yl)-N-methylpiperidine-4-carboxamide] | 
18 | 111 |  | C[C@@H]1Cc2ncnc(C3=CCC(NS(C)(=O)=O)CC3)c2CN1c1cc(Cl)nc2[nH]ccc12 (stereo partly drawn) [Example 73, N-(4-((R)-6-(6-chloro-1H-pyrrolo[2,3-b]pyridin-4-yl)-7-methyl-5,6,7,8-tetrahydropyrido[4,3-d]-pyrimidin-4-yl)cyclohex-3-en-1-yl)methane-sulfonamide] | 

Structure (SMILES) | IC50 [1, 2] [nM] | IC50 (ATR/ATRIP complex; [3]) [nM] | IC50 (ATR/ATRIP complex; [4]) [nM] | IC50 ([1]; HT-29 cells) [nM]
C[C@@H]1Cc2ncnc(C3C[C@H]4CC[C@@H](C3)N4S(C)(=O)=O)c2CN1c1cc(Cl)nc2[nH]ccc12 (single isomer, unassigned) [Example 11a] |  | 555 |  | 28
C[C@@H]1Cc2ncnc(C3=C[C@@H]4CC[C@H](C3)N4S(C)(=O)=O)c2CN1c1cc(Cl)nc2[nH]ccc12 [Example 60, (R)-6-(6-chloro-1H-pyrrolo[2,3-b]pyridin-4-yl)-7-methyl-4-((1S,5R)-8-(methylsulfonyl)-8-azabicyclo[3.2.1]oct-2-en-3-yl)-5,6,7,8-tetra-hydropyrido[4,3-d]-pyrimidine] | 22 | 66 |  | 
